Data as given in US10723727B2, “Tubulysin analogs and methods for their preparation” (priority 2016, dated 2020).
Where two headings read alike, the source gives them in different places.

Key:
[1] = tested on: MDA-MB-361-DYT2 (breast cancer) cells; test: In vitro cell assay (MTS cell viability), MDA-MB-361-DYT2; format: cell-based; conditions: free compounds, 96 hours after treatment
Procedure: (§1) In Vitro Cell Assay Procedure
(§2) Target expressing (BT474 (breast cancer), N87 (gastric cancer), HCC1954 (breast cancer), MDA-MB-361-DYT2 (breast cancer)) or non-expressing (HT-29) cells were seeded in 96-well cell culture plates for 24 hours before treatment. Cells were treated with 3-fold serially diluted antibody-drug conjugates or free compounds (i. e. no antibody conjugated to the drug) in duplicate at 10 concentrations. Cell viability was determined by CellTiter 96® AQueous One Solution Cell Proliferation MTS Assay (Promega, Madison Wis.) 96 hours after treatment. Relative cell viability was determined as percentage of untreated control. IC50 values were calculated using a four parameter logistic model #203 with XLfit v4. 2 (IDBS, Guildford, Surry, UK).

[2] = biological target: T1, tubulin/RB3-stathmin-like-domain (RB3-SLD-tdm) complex (Sus scrofa, UniProt P02550+P02554); test: Tubulin Peptide-Binding Site Competition Assay (fluorescence polarization); set-up: species or system Porcine; conditions: FP competition with BODIPY-labeled vinca peptide probe; read after five hours at 22° C.; read-out: Tubulin Peptide-Binding Site Competition Assay IC50
T1 construct: purchased Cytoskeleton, Inc. T240; host or cells: RB3-SLD was made in house in E. coli
Procedure, shortened: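 The BODIPY vinca-peptide probe was premixed with test compound and then added to porcine tubulin/RB3-SLD, at final concentrations of 3 nM probe, 6 nM tubulin and 100 nM RB3-SLD. The buffer was PIPES pH 7.0 with Tween 20, MgCl2 and EGTA, and 11-point dilutions were run in duplicate. IC50 was fitted from the fluorescence polarization decrease and converted to Ki.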

[3] = tested on: N87 (gastric cancer) cells; test: In vitro cell assay (MTS cell viability), N87; format: cell-based; conditions: free compounds, 96 hours after treatment
Procedure: as §1, §2

HT-29 cells = test: In vitro cell assay (MTS cell viability), HT-29 (target non-expressing); format: cell-based; conditions: free compounds, 96 hours after treatment, read-out: HT29 IC50
Procedure: as §1, §2

Row | SMILES | IC50 ([1]; 96 h) | IC50 [2] | IC50 ([3]; 96 h) | IC50 (HT-29 cells; Homo sapiens, HT-29, 96 h) | IC50 [1] | IC50 [3] | IC50 (HT-29 cells)
1 | CC[C@H](C)[C@H](NC(=O)[C@@]1(C)CCCN1C)C(=O)N(C)[C@H](C[C@@H](OC(C)=O)c1nc(C(=O)NCCn2nnc3ccccc32)cs1)C(C)C [#B79, 1,2-dimethyl-D-prolyl-N-[(1R,3R)-1-(acetyloxy)-1-(4-{[2-(1H-benzotriazol-1-yl)ethyl]carbamoyl}-1,3-thiazol-2-yl)-4-methylpentan-3-yl]-N-methyl-L-isoleucinamide] | 5.69 nM | 8.6 nM | 11.2 nM | 4.39 nM | – | – | –
2 | CC[C@H](C)[C@H](NC(=O)[C@@]1(C)CCCN1C)C(=O)N(C)[C@H](C[C@@H](OC(C)=O)c1nc(C(=O)NC(CO)Cc2ccccc2)cs1)C(C)C (stereo partly drawn) [#B50, 1,2-dimethyl-D-prolyl-N-[(1R,3R)-1-(acetyloxy)-1-{4-[(1-hydroxy-3-phenylpropan-2-yl)carbamoyl]-1,3-thiazol-2-yl}-4-methylpentan-3-yl]-N-methyl-L-isoleucinamide] | 12.1 nM | 8.6 nM | 28.1 nM | 8.84 nM | – | – | –
3 | CC[C@H](C)[C@H](NC(=O)[C@@]1(C)CCCN1C)C(=O)N(C)[C@H](C[C@@H](OC(C)=O)c1nc(C(=O)N[C@@H](Cc2ccccc2)C[C@H](C)C(=O)OC)cs1)C(C)C [#B5, 1,2-dimethyl-D-prolyl-N-[(1R,3R)-1-(acetyloxy)-1-(4-{[(2R,4S)-5-methoxy-4-methyl-5-oxo-1-phenylpentan-2-yl]carbamoyl}-1,3-thiazol-2-yl)-4-methylpentan-3-yl]-N-methyl-L-isoleucinamide] | 0.361 nM | 22.4 nM | 0.763 nM | 1.11 nM | – | – | –
4 | CC[C@H](C)[C@H](NC(=O)[C@@]1(C)CCCN1C)C(=O)N(C)[C@H](C[C@@H](O)c1nc(C(=O)N[C@@H](Cc2ccccc2)C[C@H](C)C(=O)O)cs1)C(C)C [#B15, 1,2-dimethyl-D-prolyl-N-[(1R,3R)-1-(4-{[(2R,4S)-4-carboxy-1-phenylpentan-2-yl]carbamoyl}-1,3-thiazol-2-yl)-1-hydroxy-4-methylpentan-3-yl]-N-methyl-L-isoleucinamide] | > 100 nM | 7 nM | > 100 nM | > 100 nM | – | – | –
5 | CCNC(=O)O[C@H](C[C@H](C(C)C)N(C)C(=O)[C@@H](NC(=O)C12CCCC(CCC1)N2C)[C@@H](C)CC)c1nc(C(=O)N[C@@H](Cc2ccc(N)cc2)C[C@H](C)C(=O)O)cs1 [#B27, (2S,4R)-5-(4-aminophenyl)-4-{[(2-{(1R,3R)-1-[(ethylcarbamoyl)oxy]-4-methyl-3-(methyl{N-[(9-methyl-9-azabicyclo[3.3.1]non-1-yl)carbonyl]-L-isoleucyl}amino)pentyl]-1,3-thiazol-4-yl}carbonyl)amino]-2-methylpentanoic acid] | 5.46 nM | < 0.648 nM | 6.42 nM | 5.39 nM | – | – | –
6 | CC[C@H](C)[C@H](NC(=O)[C@@]1(C)CCCN1C)C(=O)N(C)[C@H](C[C@@H](OC(C)=O)c1nc(C(=O)N[C@@H](Cc2ccc(N)cc2)C[C@H](C)C(=O)O)cs1)C(C)C [#B9, 1,2-dimethyl-D-prolyl-N-[(1R,3R)-1-(acetyloxy)-1-(4-{[(2R,4S)-1-(4-aminophenyl)-4-carboxypentan-2-yl]carbamoyl}-1,3-thiazol-2-yl)-4-methylpentan-3-yl]-N-methyl-L-isoleucinamide] | 0.765 nM | 2.5 nM | 1.07 nM | 0.642 nM | – | – | –
7 | CC[C@H](C)[C@H](NC(=O)[C@H](NC)C(C)C)C(=O)N(C)[C@H](C[C@@H](OC(C)=O)c1nc(C(=O)N[C@@H](Cc2ccccc2)C[C@H](C)C(=O)O)cs1)C(C)C [#B12, N-methyl-D-valyl-N-[(1R,3R)-1-(acetyloxy)-1-(4-{[(2R,4S)-4-carboxy-1-phenylpentan-2-yl]carbamoyl}-1,3-thiazol-2-yl)-4-methylpentan-3-yl]-N-methyl-L-isoleucinamide] | 2.97 nM | < 0.458 nM | 2.98 nM | 4.52 nM | – | – | –
8 | CC[C@H](C)[C@H](NC(=O)[C@@]1(C)CCCN1C)C(=O)N(C)[C@H](C[C@@H](OC(=O)N(C)C)c1nc(C(=O)N[C@@H](Cc2ccc(N)cc2)C[C@H](C)C(=O)O)cs1)C(C)C [#B31, 1,2-dimethyl-D-prolyl-N-{(1R,3R)-1-(4-{[(2R,4S)-1-(4-aminophenyl)-4-carboxypentan-2-yl]carbamoyl}-1,3-thiazol-2-yl)-1-[(dimethylcarbamoyl)oxy]-4-methylpentan-3-yl}-N-methyl-L-isoleucinamide] | 4.04 nM | 3.1 nM | 3.83 nM | 3.86 nM | – | – | –
9 | CC[C@H](C)[C@H](NC(=O)[C@@]1(C)CCCN1C)C(=O)N(C)[C@H](C[C@@H](OC(C)=O)c1nc(C(=O)NCC2(c3ccccc3)CC2)cs1)C(C)C [#B53, 1,2-dimethyl-D-prolyl-N-[(1R,3R)-1-(acetyloxy)-4-methyl-1-(4-{[(1-phenylcyclopropyl)methyl]carbamoyl}-1,3-thiazol-2-yl}pentan-3-yl]-N-methyl-L-isoleucinamide] | 34 nM | 12.9 nM | 52.4 nM | 45.1 nM | – | – | –
10 | CCNC(=O)O[C@H](C[C@H](C(C)C)N(C)C(=O)[C@@H](NC(=O)[C@@]1(C)CCCN1C)[C@@H](C)CC)c1nc(C(=O)N[C@H](C(=O)OC)C(C)O)cs1 (stereo partly drawn) [#B22, 1,2-dimethyl-D-prolyl-N-{(1R,3R)-1-[(ethylcarbamoyl)oxy]-1-(4-{[(2S)-3-hydroxy-1-methoxy-1-oxobutan-2-yl]carbamoyl}-1,3-thiazol-2-yl)-4-methylpentan-3-yl]-N-methyl-L-isoleucinamide] | 11.2 nM | – | 12.1 nM | 14.4 nM | – | – | –
11 | CC[C@H](C)[C@H](NC(=O)[C@]1(C)CCCCN1C)C(=O)N(C)[C@H](C[C@@H](OC(C)=O)c1nc(C(=O)N[C@@H](Cc2ccc(N)cc2)C[C@H](C)C(=O)O)cs1)C(C)C [#B23, (2S,4R)-4-{[(2-{(1R,3R)-1-(acetyloxy)-3-[(N-{[(2S)-1,2-dimethylpiperidin-2-yl]carbonyl}-L-isoleucyl)(methyl)amino]-4-methylpentyl}-1,3-thiazol-4-yl)carbonyl]amino}-5-(4-aminophenyl)-2-methylpentanoic acid] | 2.02 nM | – | 2.71 nM | 2.33 nM | – | – | –
12 | CCOP(=O)(OCC)[C@@H](C)C[C@H](Cc1ccc(N)cc1)NC(=O)c1csc([C@@H](C[C@H](C(C)C)N(C)C(=O)[C@@H](NC(=O)[C@H]2CCCCN2C)[C@@H](C)CC)OC(C)=O)n1 [#B11, (1R,3R)-1-(4-{[(2S,4S)-1-(4-aminophenyl)-4-(diethoxyphosphoryl)pentan-2-yl]carbamoyl}-1,3-thiazol-2-yl)-4-methyl-3-[methyl(N-{[(2R)-1-methylpiperidin-2-yl]carbonyl}-L-isoleucyl)amino]pentyl Acetate] | 0.609 nM | – | 0.909 nM | 0.954 nM | – | – | –
13 | CCNC(=O)O[C@H](C[C@H](C(C)C)N(C)C(=O)[C@@H](NC(=O)[C@]1(C)CCCCN1C)[C@@H](C)CC)c1nc(C(=O)N[C@@H](Cc2ccc(N)cc2)C[C@H](C)C(=O)O)cs1 [#B25, (2S,4R)-5-(4-aminophenyl)-4-{[(2-{(1R,3R)-3-[(N-{[(2S)-1,2-dimethylpiperidin-2-yl]carbonyl}-L-isoleucyl)(methyl)amino]-1-[(ethylcarbamoyl)oxy]-4-methylpentyl}-1,3-thiazol-4-yl)carbonyl]amino}-2-methylpentanoic acid] | – | – | – | – | 4.62 nM | 6.3 nM | 5.9 nM
